Measured values from paper PMC11191095, “QSAR Reveals Decreased Lipophilicity of Polar Residues Determines the Selectivity of Antimicrobial Peptide Activity” (ACS Omega, 2024).
Where a SMILES comes first, the peptide text is derived from it.

Experiments:
[1] = RP-HPLC ElutionTime as indicator of hydrophobicity; format: physicochemical; details: indicator of overall hydrophobicity; semipreparative RP-HPLC, Waters SymmetryPrep C8, water/ACN gradient with 0.1% TFA, 8 mL/min, 25 °C, 254 nm
Method: Crude peptides, made up to 10 mg/mL in 0.1% TFA (v/v) in ddH2O, were subjected to preparative RP-HPLC purification on an Agilent 1100 system, with elution in gradient. A gradient program at a flow rate of 8 mL/min and column temperature of 25 °C was used to achieve elution with solvent A (0.1% trifluoroacetic acid (TFA) in water (v/v)) and solvent B (0.1% TFA in 100% acetonitrile (ACN) (v/v)). The elution program was as follows: (1) At 0–73 min, 100% solvent A to 0% solvent B; (2) at 73–77 min, 40% solvent A to 60% solvent B; (3) at 77–93 min, 10% solvent A to 90% solvent B; (4) at 93–105 min, 100% solvent A to 0% solvent B. Data collected were the retention time of the major fraction for each peptide in minutes as RP-HPLC ElutionTime (ElutionTime). Absorbance was detected at 254 nm, and fractions were collected manually. The fractions collected were spun in a speed-vac to remove ACN and the contents lyophilized. After freeze-drying for 24 h the peptides were dissolved in 10% (v/v) acetic acid before being lyophilized for a second time and then stored at −20 °C.
Molecular descriptors used in the QSAR analysis included: charge, sequence length, overall lipophilicity (L), lipophilicity contributed by the polar or nonpolar residues (LP and LN), summation of the side chain surface areas of the total peptide, polar or nonpolar residues (SCSA, SCSAP, and SCSAN), the molecular weight of the entire peptide, polar or nonpolar residues (Mw, MwP, and MwN), count of small lipophilic residues (CSL) or aromatic residues (CAR), the total number of hydrogen bond donor and acceptor centers (HBtot, HBdon, and HBacc), the total number of rotatable bonds (#RotBonds) and various amphipathicity descriptors (LP/L, LP/LN, L/LN, Q/L, Q/LN, SCSAP/SCSAN, MwP/MwN, Q/CSL, and Q/CAR) (Suppl. Table S1). Experimentally determined characteristics included ElutionTime as an indicator of overall peptide hydrophobicity and the CD structure of each peptide determined in POPG/POPE lipids representing Gram-negative membranes, POPG lipids for Gram-positive membranes, and SDS micelles for fungal membranes. AMPs with an α-helical structure were labeled 4, β-sheets were labeled 3, β-turns and mixed conformations were labeled 2, and disordered structures were labeled 1.

C. tropicalis NCPF 8760 = assay: microbe, parasite or virus in culture; format: cell-based; details: C. tropicalis NCPF 8760
How it was run: (§1)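 Peptides 128→2 μg/mL, 2-fold series; inoculum ~5 × 10^5 CFU/mL from overnight culture (OD600 0.01, mixed 1:1). MHB non-cation-adjusted for bacteria, RPMI 1640 + 2% glucose for fungi. 37 °C, 20 h, OD600. MIC50/MIC90 at 50%/90% inhibition; n ≥ 3.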

P. aeruginosa PAO1 = assay: microbe, parasite or virus in culture; format: cell-based, Pseudomonas aeruginosa; details: P. aeruginosa PAO1 (S)
How it was run: as §1

HaCat cell line = assay: In vitro HaCat cytotoxicity (MTT); format: cell-based, human; details: 21 h exposure, OD570, relative to untreated control
How it was run: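 HaCat keratinocytes were first screened with peptide at 256 μg/mL for 21 h at 37 °C, and a dose-response was run only when cytotoxicity reached p < 0.0001. Viability was read by MTT (3 h, OD570) relative to untreated control, and LC50 was taken from the dose-response curves.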

Compound: C[C@H](NC(=O)CNC(=O)[C@H](CCCCN)NC(=O)[C@@H](N)CS)C(=O)N[C@@H](Cc1ccccc1)C(=O)N[C@@H](CCCCN)C(=O)N[C@@H](CCC(N)=O)C(=O)N[C@H](C(=O)N[C@@H](CS)C(=O)N[C@@H](CCCCN)C(=O)N[C@@H](CS)C(=O)N[C@@H](Cc1ccc(O)cc1)C(N)=O)[C@@H](C)O [Os(11-22)a] (H-CKGAFKQTCKCY-NH2; N-terminus assumed)
- ElutionTime (RP-HPLC retention time of major fraction) [1]: 21,3 min
- Modal MIC50 (C. tropicalis NCPF 8760; 50% growth inhibition, RPMI 1640 + 2% glucose, 37 °C, 20 h): > 128 µg/mL
- Modal MIC90 (C. tropicalis NCPF 8760; 90% growth inhibition, RPMI 1640 + 2% glucose, 37 °C, 20 h): > 128 µg/mL
- Modal MIC50 (C. tropicalis NCPF 8760; shown in µM): > 91.7 µM
- Modal MIC90 (C. tropicalis NCPF 8760; shown in µM): > 91.7 µM
- Modal MIC (P. aeruginosa PAO1; MHB, 37 °C, 20 h, OD600, min. three biological repeats): > 128 µg/mL
- Modal MIC (P. aeruginosa PAO1; shown in µM): > 91.7 µM
- % HaCat cell death at initial screening (256μg/mL) ± SD (HaCat cell line): 59.5 ±13.9%
- % HaCat cell death at initial screening (256μg/mL) ± SD (HaCat cell line; listed as Os(11–22)a): 59.5%
